Assay: Solubility of testosterone in tetrahydrofuran
Type: physicochemical

## C[C@]12CC[C@H]3[C@@H](CCC4=CC(=O)CC[C@@]43C)[C@@H]1CC[C@@H]2O [testosterone, 17β-hydroxyandrost-4-en-3-one]
  solubility of testosterone in THF: ~27 % m/m

Source: patent publication US20030082227A1, “Transdermal device comprising a reservoir and a matrix containing the same active principle” (priority 1999, published 2003)
